# From ChEMBL document CHEMBL5247583, “Synthesis and evaluation of small molecule inhibitors of LSD1 for use against MYCN-expressing neuroblastoma” (Eur J Med Chem, 2022)
# Active and inactive are the calls of the source. The calls are words filed in the database; no cut-off is given here.
# What was measured:
# IMR-32 [1] = assay: Cytotoxicity against human IMR-32 cells assessed as lethal concentration measured after 24 hrs by cell titer glo assay; assay type: functional; settings: read-out: LC50 (the source's name)
# CHP-134 [2] = assay: Cytotoxicity against human CHP-134 cells assessed as lethal concentration measured after 24 hrs by cell titer glo assay; assay type: functional; settings: read-out: LC50 (the source's name)
# IMR-32 [3] = assay: Cytotoxicity against human IMR-32 cells assessed as combination index measured after 24 hrs by cell titer glo assay; assay type: functional
# CHP-134 [4] = assay: Cytotoxicity against human CHP-134 cells assessed as lethal concentration measured after 24 hrs in presence of bortezomib by cell titer glo assay; assay type: functional; settings: read-out: LC50 (the source's name)
# IMR-32 [5] = assay: Cytotoxicity against human IMR-32 cells assessed as lethal concentration measured after 24 hrs in presence of bortezomib by cell titer glo assay; assay type: functional; settings: read-out: LC50 (the source's name)
# CHP-134 [6] = assay: Cytotoxicity against human CHP-134 cells measured after 24 hrs in presence of bortezomib by cell titer glo assay; assay type: functional, cell-based
# IMR-32 [7] = assay: Upregulation of LSD1 expression level in human IMR-32 cells by DAPI staining based analysis; assay type: functional, cell-based
# IMR-32 [8] = assay: Cytotoxicity against human IMR-32 cells assessed lethal concentration measured after 72 hrs by cell titer glo assay; assay type: functional; settings: read-out: LC50 (the source's name)
# [9] = biological target: Spermine oxidase (Homo sapiens) (UniProt Q9NWM0); assay: Inhibition of SMOX (unknown origin) at 50 uM using spermine as substrate preincubated for 1 hr followed by substrate addition and measured after 20 mins by luminometer analysis relative to control; settings: time 80.0 min
# CHP-134 [10] = assay: Cytotoxicity against human CHP-134 cells assessed lethal concentration measured after 72 hrs by cell titer glo assay; assay type: functional; settings: read-out: LC50 (the source's name)
# [11] = biological target: T1, MAO-A (Amine oxidase [flavin-containing] A) (Homo sapiens, UniProt P21397); assay: Inhibition of recombinant MAO-A (unknown origin) at 1 uM using luciferin as substrate preincubated for 1 hr followed by substrate addition measured after 20 min by microplate reader analysis relative to control; settings: probe luciferin, time 80 min
# T1 sequence (P21397 whole entry): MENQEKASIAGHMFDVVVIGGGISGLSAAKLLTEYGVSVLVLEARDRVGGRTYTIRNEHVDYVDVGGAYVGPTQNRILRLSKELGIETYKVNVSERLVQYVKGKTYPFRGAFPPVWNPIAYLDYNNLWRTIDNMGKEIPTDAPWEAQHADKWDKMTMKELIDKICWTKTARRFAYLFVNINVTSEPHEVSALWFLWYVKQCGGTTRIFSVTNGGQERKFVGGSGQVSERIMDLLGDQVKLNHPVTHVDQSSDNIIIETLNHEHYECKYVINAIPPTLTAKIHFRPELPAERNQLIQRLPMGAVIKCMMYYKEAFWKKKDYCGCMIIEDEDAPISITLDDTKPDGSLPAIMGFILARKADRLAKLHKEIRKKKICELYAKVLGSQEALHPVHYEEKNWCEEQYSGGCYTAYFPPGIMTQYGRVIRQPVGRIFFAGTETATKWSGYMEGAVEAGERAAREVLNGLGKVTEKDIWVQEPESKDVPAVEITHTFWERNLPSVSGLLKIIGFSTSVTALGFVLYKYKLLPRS
# Sequence of Spermine oxidase (Homo sapiens) (Q9NWM0 whole entry): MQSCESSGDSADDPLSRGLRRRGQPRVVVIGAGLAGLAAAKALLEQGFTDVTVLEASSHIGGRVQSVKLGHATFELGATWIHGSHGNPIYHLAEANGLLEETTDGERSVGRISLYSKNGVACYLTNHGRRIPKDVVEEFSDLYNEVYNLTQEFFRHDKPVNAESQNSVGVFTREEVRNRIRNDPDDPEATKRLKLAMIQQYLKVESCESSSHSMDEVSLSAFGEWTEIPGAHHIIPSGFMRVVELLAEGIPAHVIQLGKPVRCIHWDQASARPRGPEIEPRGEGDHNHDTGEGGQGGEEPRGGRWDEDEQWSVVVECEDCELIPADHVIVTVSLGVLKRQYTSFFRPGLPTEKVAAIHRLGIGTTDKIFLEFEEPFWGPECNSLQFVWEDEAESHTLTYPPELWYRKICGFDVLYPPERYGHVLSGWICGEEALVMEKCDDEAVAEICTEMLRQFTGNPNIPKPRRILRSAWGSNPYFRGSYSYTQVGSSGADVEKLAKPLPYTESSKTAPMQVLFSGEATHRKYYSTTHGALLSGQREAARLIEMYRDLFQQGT
compound,measurement,setting,value
CC(C)C[C@H](NC(=O)[C@H](Cc1ccccc1)NC(=O)c1cnccn1)B(O)O [BORTEZOMIB],CC50,IMR-32 [1],19 nM
same,CC50,CHP-134 [2],106 nM
same,CI,IMR-32 [3],0.37
COc1ccc(C2=C(c3ccc(C#N)c(F)c3)N=C(N3CCC(N)CC3)N(C)C2)cc1F,CC50,CHP-134 [4],16 nM
same,CC50,IMR-32 [5],8.4 nM
O=S(=O)(Nc1ccc(Br)cc1-c1nnn[nH]1)c1ccc(-c2ccc(Cl)cc2)cc1,Activity,CHP-134 [6],Active
same,Activity,IMR-32 [7],Active
same,CC50,CHP-134 [4],60 nM
same,CC50,IMR-32 [8],3100 nM
same,inhibition,[9],12%
same,CC50,IMR-32 [5],7 nM
same,CC50,CHP-134 [10],11600 nM
C#CCN(C)CCCOc1ccc(Cl)cc1Cl [CLORGILINE],"inhibition at 20 min, 1 µM",[11],92%
